The structures appear in SMILES notation. pIC50: −log10 of the molar value.

A word on the IC50: it is the midpoint of a concentration-inhibition curve. By pIC50 is commonly meant the IC50 on a negative log10 scale, so that one unit is a factor of ten.

The test system of the first test is IL1-β release upon NLRP3 activation in peripheral blood mononuclear cells (PBMC). Description: PBMC IC50 Determination Assay. Type of test: cell-based. To be noted: Homo sapiens, PBMC, read-out: PBMCs, IC50, μM. The procedure: PBMC IC50 Determination Assay
The compounds of the present disclosure were tested for their inhibitory activity against IL1-β release upon NLRP3 activation in peripheral blood mononuclear cells (PBMC).
Isolated cells were seeded into the wells of a 96-well plate and incubated for 3 h with lipopolysaccharide (LPS). Following medium exchange, the compounds of the present disclosure were added (a single compound per well) and the cells were incubated for 30 min. Next, the cells were stimulated either with ATP (5 mM) or nigericin (10 μM) for 1 h and the cell culture media from the wells were collected for further analysis.
The release of IL-1β into the media was determined by a quantitative detection of IL-1β in 5 the media using an IL-1β enzyme-linked immunosorbent assay (ELISA) Ready-SET-Go!, eBioscience cat. […] Subsequently, plates were blocked with blocking buffer for 1 h at room temperature (rt) and after washing with a buffer (PBS with 0.05% Tween-20) incubated with protein standard and culture media. […] Plates were washed and incubated with HRP-streptavidin for 30 min at rt and washed again. The signal was developed after addition of 3,39,S,59-tetramethylbenzidine-peroxidase (TMB) until color appeared and the reaction was stopped by 2 M H2SO4. A microplate spectrophotometer (BioTek) was used to detect signals with 450 nm. The detection range of IL-1β ELISA was […].
For the compound `CCOC(=O)CNC(=O)Nc1cc2c(c3c1CCCC3)CCC2` [Example 2T, Ethyl 2-[({1H,2H,3H,6H,7H,8H,9H-cyclopenta[a]naphthalen-5-yl}carbamoyl)amino] acetate], the 50% inhibitory concentration (IC50) was 3.1 µM.
On the same count and under the same terms, the value for `COC(=O)C(Cc1cnn(C)c1)NC(=O)Nc1c2c(cc3c1CCC3)CCC2` (centres unmarked) [Example 2Q, Methyl 2-{[(1,2,3,5,6,7-hexahydro-s-indacen-4-yl)carbamoyl]amino}-3-(1-methyl-1H-pyrazol-4-yl)propanoate] was 2.4 µM.

The test is the same for the next values; noted with them: Homo sapiens; PBMC from buffy coats, LPS 3 h, compound 30 min, then ATP (5 mM) or nigericin (10 μM) for 1 h; IL-1β in media by ELISA; read-out: PBMCs, IC50.
For the compound `CCOC(=O)C(Cc1ccon1)NC(=O)Nc1c2c(cc3c1CCC3)CCC2` (centres unmarked) [Example 2AB, Ethyl 2-{[(1,2,3,5,6,7-hexahydro-s-indacen-4-yl)carbamoyl]amino}-3-(1,2-oxazol-3-yl)propanoate], the pIC50 was 5.74.
Same read-out and setting: the value for `COC(=O)[C@@H](Cc1ccc(O)cc1)NC(=O)Nc1c2c(cc3c1CCC3)CCC2` [Example 2Z, methyl(2R)-2-{[(1,2,3,5,6,7-hexahydro-s-indacen-4-yl)carbamoyl]amino}-3-(4-hydroxyphenyl)propanoate] was 7.00; that for `CCOC(=O)C(Cc1ncco1)NC(=O)Nc1c2c(cc3c1CCC3)CCC2` (centres unmarked) [Example 2AC, Ethyl 2-{[(1,2,3,5,6,7-hexahydro-s-indacen-4-yl)carbamoyl]amino}-3-(1,3-oxazol-2-yl)propanoate] was 6.17; that for `COC(=O)[C@@H](Cc1ccccn1)NC(=O)Nc1c2c(cc3c1CCC3)CCC2` [Example 2F, Methyl (2R)-2-{[(1,2,3,5,6,7-hexahydro-s-indacen-4-yl)carbamoyl]amino}-3-(pyridin-2-yl)propanoate] was 5.38.
Same read-out and setting: the value for `COC(=O)C(Cc1cccc(O)c1)NC(=O)Nc1c2c(cc3c1CCC3)CCC2` (centres unmarked) [Example 2A, Methyl2-{[(1,2,3,5,6,7-hexahydro-s-indacen-4-yl)carbamoyl]amino}-3-(3-hydroxyphenyl)propanoate] was 5.60; that for `O=C(Nc1c2c(cc3c1CCC3)CCC2)N[C@H](Cc1cccnc1)C(=O)O` [Example 2LL, (2R)-2-{[(1,2,3,5,6,7-hexahydro-s-indacen-4-yl)carbamoyl]amino}-3-(pyridin-3-yl)propanoic acid] was 5.70; that for `COC(=O)[C@@H](CC#N)NC(=O)Nc1c2c(cc3c1CCC3)CCC2` [Example 2QQ, methyl(2R)-3-cyano-2-{[(1,2,3,5,6,7-hexahydro-s-indacen-4yl)carbamoyl]amino}propanoate] was over 5.00.
Same read-out and setting: the value for `CC(C)OC(=O)CNC(=O)Nc1c2c(cc3c1CCC3)CCC2` [Example 2AA, propan-2-yl 2-{[(1,2,3,5,6,7-hexahydro-s-indacen-4-yl)carbamoyl]amino}acetate] was 5.74; that for `COC(=O)[C@@H](Cc1cccc(O)c1)NC(=O)Nc1c2c(cc3c1CCC3)CCC2` [Example 2K, Methyl(2R)-2-{[(1,2,3,5,6,7-hexahydro-s-indacen-4-yl)carbamoyl]amino}-3-(3-hydroxyphenyl)propanoate] was 5.89; that for `O=C(Nc1c2c(cc3c1CCC3)CCC2)N[C@H](Cc1cccnc1)C(=O)OCC1CC1` [Example 2OO, cyclopropylmethyl(2R)-2-{[(1,2,3,5,6,7-hexahydro-s-indacen-4-yl)carbamoyl]amino}-3-(pyridin-3-yl)propanoate] was 6.33.
With `COC(=O)[C@@H](Cc1cccc(N)c1)NC(=O)Nc1c2c(cc3c1CCC3)CCC2` [Example 2HH, methyl(2R)-3-(3-aminophenyl)-2-{[(1,2,3,5,6,7-hexahydro-s-indacen-4yl)carbamoyl]amino}propanoate], the pIC50 was 5.36.
On to `COC(=O)[C@@H](Cc1cncc(OC)c1)NC(=O)Nc1c2c(cc3c1CCC3)CCC2` [Example 2WW, Methyl (2R)-2-{[(1,2,3,5,6,7-hexahydro-s-indacen-4-yl)carbamoyl]amino}-3-(5-methoxypyridin-3-yl)propanoate], for which the negative logarithm of the IC50 (pIC50) was 6.35.
With `COC(=O)C(Cn1cc(C)cn1)NC(=O)Nc1c2c(cc3c1CCC3)CCC2` (centres unmarked) [Example 2TT, Methyl 2-{[(1,2,3,5,6,7-hexahydro-s-indacen-4-yl)carbamoyl]amino}-3-(4-methyl-1H-pyrazol-1-yl)propanoate], the pIC50 is 4.85.
On to `CCOC(=O)C(Cc1ccncn1)NC(=O)Nc1c2c(cc3c1CCC3)CCC2` (centres unmarked) [Example 2AI, ethyl 2-{[(1,2,3,5,6,7-hexahydro-s-indacen-4-yl)carbamoyl]amino}-3-(pyrimidin-4-yl)propanoate], for which the pIC50 was 5.17.
On to `CCOC(=O)C(Cc1cnoc1)NC(=O)Nc1c2c(cc3c1CCC3)CCC2` (centres unmarked) [Example 2ZZ, Ethyl 2-{[(1,2,3,5,6,7-hexahydro-s-indacen-4-yl)carbamoyl]amino}-3-(1,2-oxazol-4-yl)propanoate], for which the negative-log IC50 (pIC50) was 5.48.
Same read-out and setting: the value for `COC(=O)CNC(=O)Nc1c2c(cc3c1CCC3)CCC2` [Example 2EE, methyl 2-{[(1,2,3,5,6,7-hexahydro-s-indacen-4-yl)carbamoyl]amino}acetate] was 5.43; that for `COC(=O)[C@@H](Cc1cccs1)NC(=O)Nc1c2c(cc3c1CCC3)CCC2` [Example 2CC, methyl (2R)-2-{[(1,2,3,5,6,7-hexahydro-s-indacen-4-yl)carbamoyl]amino}-3-(thiophen-2-yl)propanoate] was 6.30; that for `COC(=O)[C@@H](Cc1cccc(-c2cc[nH]n2)c1)NC(=O)Nc1c2c(cc3c1CCC3)CCC2` [Example 2L, Methyl (2R)-2-{[(1,2,3,5,6,7-hexahydro-s-indacen-4-yl)carbamoyl]amino}-3-[3-(1H-pyrazol-3-yl)phenyl]propanoate] was 6.85.
`CCOC(=O)[C@@H](Cc1cccnc1)NC(=O)Nc1c(C(C)C)cccc1C(C)C` [Example 2UU, Ethyl (2R)-2-({[2,6-bis(propan-2-yl)phenyl]carbamoyl}amino)-3-(pyridin-3-yl)propanoate]: the pIC50 was 4.68.
The same measure, in the same setting: the value for `COC(=O)[C@@H](Cc1cccnc1)NC(=O)Nc1c2c(cc3c1CCC3)CCC2` [Example 2H, Methyl (2R)-2-{[(1,2,3,5,6,7-hexahydro-s-indacen-4-yl)carbamoyl]amino}-3-(pyridin-3-yl)propanoate] was 6.06; that for `COC(=O)[C@@H](CO)NC(=O)Nc1c2c(cc3c1CCC3)CCC2` [Example 2JJ, methyl(2R)-2-{[(1,2,3,5,6,7-hexahydro-s-indacen-4-yl)carbamoyl]amino}-3-hydroxypropanoate] was 4.59.
On to `COC(=O)[C@@H](CN)NC(=O)Nc1c2c(cc3c1CCC3)CCC2` [Example 2N, Methyl(2R)-3-amino-2-{[(1,2,3,5,6,7-hexahydro-s-indacen-4-yl)carbamoyl]amino}propanoate], for which the pIC50 was 5.03.
On the same count and under the same terms, the value for `CCOC(=O)[C@@H](Cc1cccnc1)NC(=O)Nc1cc2c(cc1C(C)C)CCC2` [Example 2AD, Ethyl (2R)-2-({[6-(propan-2-yl)-2,3-dihydro-1H-inden-5-yl]carbamoyl}amino)-3-(pyridin-3-yl)propanoate] was 5.54; that for `CCOC(=O)C(Cc1ccnnc1)NC(=O)Nc1c2c(cc3c1CCC3)CCC2` (centres unmarked) [Example 2AG, Ethyl 2-{[(1,2,3,5,6,7-hexahydro-s-indacen-4-yl)carbamoyl]amino}-3-(pyridazin-4-yl)propanoate] was 5.22.
